Common to all, as to format: cell-based, human
In assay [1] the test system is Egr-1 and p-ERK proteins. As to the kind of experiment: ROS inhibitor assay (Western blot), HaCaT. As to conditions: 10 uM/ml NAC 2 hours before ZnO, 1 hour after ZnO, FIG. 13B. The method, then:
(§1) A Western blot assay was performed in the same manner as described in Example 2, except for the following differences. At 2 hours before treatment with ZnO, cultured cells were treated with 10 uM/ml of the antioxidant N-acetyl cystein (NAC), and after 2 hours, the cells were treated with 2 ml of fresh DMEM medium free of FBS and P/S. After 1 hour from the treatment with ZnO, the medium was removed, and the cells were treated with 1×PBS, scraped with a scrapper, and then transferred to a 1.5 ml tube. […] Thus, it can be seen that the expressions of the marker proteins Egr-1 and p-ERK are increased by ROS (B: HaCaT, C: HEKn). Herein, the data points indicate the β-actin-normalized mean and ERK-normalized mean of three independent experiments compared using two-way Anova (***P<0.001).

The subject of assay [2] is Egr-1 and p-ERK proteins. In words: ROS inhibitor assay (Western blot), HEKn. As to conditions: 10 uM/ml NAC 2 hours before ZnO, 1 hour after ZnO, FIG. 13C. The method, then:
as §1

Another assay has as its system Egr-1 protein. In words: MAPK inhibitor assay (Western blot, ZnO plus MAPK inhibitor). Conditions: cells pre-treated with inhibitor 30 minutes before ZnO; 2 hours after ZnO. On the procedure:
A Western blot assay was performed in the same manner as described in Example 2, except for the following differences. At 30 minutes before treatment with ZnO, cells were treated with an MAPK (mitogen-activated proteinkinase) inhibitor (U0126: ERK inhibitor, SB600125: p38 inhibitor, SP239063: JNK inhibitor-sigma product), and after 30 minutes, the cells were treated with 2 ml of fresh DMEM medium free of FBS and P/S. After 2 hours from treatment with ZnO, the medium was removed, and the cells were treated with 1×PBS, scraped with a scrapper, and then transferred to a 1.5 ml tube.
A Western blot assay was performed in the same manner as described in Example 2, except for the following differences. At 30 minutes before treatment with ZnO, cells were treated with an MAPK (mitogen-activated proteinkinase) inhibitor (U0126: ERK inhibitor, SB600125: p38 inhibitor, SP239063: JNK inhibitor-sigma product), and after 30 minutes, the cells were treated with 2 ml of fresh DMEM medium free of FBS and P/S. After 2 hours from the treatment with ZnO, the medium was removed, and the cells were treated with 1×PBS, scraped with a scrapper, and then transferred to a 1.5 ml tube.

In the case of `CC(=O)N[C@@H](CS)C(=O)O` [NAC, N-acetyl cystein], the “expression bands of Egr-1 protein” value was “significantly decreased” with Egr-1 and p-ERK proteins [1]; “significantly decreased” in the assay with Egr-1 and p-ERK proteins [2]. The “expression bands of p-ERK protein” value with Egr-1 and p-ERK proteins [1] is given as “significantly decreased”; in the assay on Egr-1 and p-ERK proteins [2], “significantly decreased”.
With `N#CC(=C(/N)Sc1ccccc1N)/C(C#N)=C(\N)Sc1ccccc1N` [U0126], the “expression of the Egr-1 protein” value with Egr-1 protein is on record as “significantly decreased”.

These data come from patent US20150253328A1, “NANOMATERIAL-INDUCED CYTOTOXICITY DETECTION COMPOSITION AND KIT, AND NANOMATERIAL-INDUCED CYTOTOXICITY DETECTION METHOD” (KOREA UNIVERSITY RESEARCH AND BUSINESS FOUNDATION, priority 2011, published 2015).
